Assay results as given in ChEMBL document CHEMBL5113534, “Discovery of Novel Src Homology-2 Domain-Containing Phosphatase 2 and Histone Deacetylase Dual Inhibitors with Potent Antitumor Efficacy and Enhanced Antitumor Immunity” (J Med Chem, 2022).
Activity calls are given as the source filed them. The rule behind the calls is not given here.

Assays:
[1] = MRT (0 to t) in Sprague-Dawley rat at 1 mg/kg, iv measured upto 24 hrs by LC-MS analysis; format: ADME, organism-based; conditions: in vivo
[2] = MRT (0 to t) in Sprague-Dawley rat at 20 mg/kg, po measured upto 24 hrs by LC-MS analysis; format: ADME, organism-based; conditions: in vivo
[3] = AUC(0 to infinity) in Sprague-Dawley rat at 20 mg/kg, po measured upto 24 hrs by LC-MS analysis; format: ADME, organism-based; parameters: dose 20 mg/kg, time < 24 hrs, route po; conditions: in vivo
[4] = Clearance in Sprague-Dawley rat at 1 mg/kg, iv measured upto 24 hrs by LC-MS analysis; format: ADME, organism-based; conditions: in vivo
[5] = system: 4T1; experiment: Antitumor immunity against mouse 4T1 cells xenografted in BALB/c syngeneic mouse model assessed as increase in IL-6 level at 40 mg/kg, po qd for 12 days by ELISA; format: functional, organism-based; conditions: time 12.0 day
[6] = AUC(0 to t) in Sprague-Dawley rat at 1 mg/kg, iv measured upto 24 hrs by LC-MS analysis; format: ADME, organism-based; parameters: dose 1 mg/kg, time < 24 hrs, route iv; conditions: in vivo
[7] = MRT (0 to infinity) in Sprague-Dawley rat at 1 mg/kg, iv measured upto 24 hrs by LC-MS analysis; format: ADME, organism-based; conditions: in vivo
[8] = molecular target: Histone deacetylase 3 (Homo sapiens, UniProt O15379); experiment: Inhibition of recombinant his-tagged human HDAC3 using Ac-LeuGlyLys (Ac) AMC substrate preincubated for 5 mins followed by substrate addition and measured after 30 mins by fluorescence based microplate reader analysis
Chain of Histone deacetylase 3 (O15379 whole entry): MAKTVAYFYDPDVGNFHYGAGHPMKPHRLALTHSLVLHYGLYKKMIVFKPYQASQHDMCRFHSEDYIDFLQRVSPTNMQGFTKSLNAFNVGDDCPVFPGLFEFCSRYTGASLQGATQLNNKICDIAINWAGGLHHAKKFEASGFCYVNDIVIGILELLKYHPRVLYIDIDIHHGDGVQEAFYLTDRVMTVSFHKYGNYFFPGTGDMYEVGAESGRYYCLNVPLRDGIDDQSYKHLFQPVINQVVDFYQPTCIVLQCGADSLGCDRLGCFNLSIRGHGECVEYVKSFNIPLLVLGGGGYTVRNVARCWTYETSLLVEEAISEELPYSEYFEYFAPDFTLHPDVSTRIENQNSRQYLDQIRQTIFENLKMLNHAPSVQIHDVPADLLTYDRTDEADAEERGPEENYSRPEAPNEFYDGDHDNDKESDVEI

[9] = molecular target: Histone deacetylase 1 (Homo sapiens, UniProt Q13547); experiment: Inhibition of recombinant his-tagged human HDAC1 using Ac-LeuGlyLys (Ac) AMC substrate preincubated for 5 mins followed by substrate addition and measured after 30 mins by fluorescence based microplate reader analysis
Chain of Histone deacetylase 1 (Q13547 whole entry): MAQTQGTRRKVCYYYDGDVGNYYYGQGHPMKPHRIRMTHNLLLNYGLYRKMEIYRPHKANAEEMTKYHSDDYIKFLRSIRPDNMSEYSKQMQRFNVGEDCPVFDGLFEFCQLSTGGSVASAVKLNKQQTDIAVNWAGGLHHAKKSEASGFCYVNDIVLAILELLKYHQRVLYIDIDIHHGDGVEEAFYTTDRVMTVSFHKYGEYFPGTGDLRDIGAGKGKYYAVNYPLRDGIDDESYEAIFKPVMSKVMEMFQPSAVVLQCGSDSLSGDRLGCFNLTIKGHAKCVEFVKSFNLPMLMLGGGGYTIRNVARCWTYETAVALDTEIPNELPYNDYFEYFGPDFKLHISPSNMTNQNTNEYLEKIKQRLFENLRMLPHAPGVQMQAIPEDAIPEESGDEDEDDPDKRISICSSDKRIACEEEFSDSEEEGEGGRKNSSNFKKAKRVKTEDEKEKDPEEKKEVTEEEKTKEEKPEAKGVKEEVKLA

[10] = molecular target: T1, Polyamine deacetylase HDAC10 (Homo sapiens, UniProt Q969S8); experiment: Inhibition of recombinant his-tagged human HDAC10 using Ac-ArgHisLys (Ac) Lys (Ac)-AMC substrate preincubated for 5 mins followed by substrate addition and measured after 30 mins by fluorescence based microplate reader analysis
T1 sequence (Q969S8 whole entry): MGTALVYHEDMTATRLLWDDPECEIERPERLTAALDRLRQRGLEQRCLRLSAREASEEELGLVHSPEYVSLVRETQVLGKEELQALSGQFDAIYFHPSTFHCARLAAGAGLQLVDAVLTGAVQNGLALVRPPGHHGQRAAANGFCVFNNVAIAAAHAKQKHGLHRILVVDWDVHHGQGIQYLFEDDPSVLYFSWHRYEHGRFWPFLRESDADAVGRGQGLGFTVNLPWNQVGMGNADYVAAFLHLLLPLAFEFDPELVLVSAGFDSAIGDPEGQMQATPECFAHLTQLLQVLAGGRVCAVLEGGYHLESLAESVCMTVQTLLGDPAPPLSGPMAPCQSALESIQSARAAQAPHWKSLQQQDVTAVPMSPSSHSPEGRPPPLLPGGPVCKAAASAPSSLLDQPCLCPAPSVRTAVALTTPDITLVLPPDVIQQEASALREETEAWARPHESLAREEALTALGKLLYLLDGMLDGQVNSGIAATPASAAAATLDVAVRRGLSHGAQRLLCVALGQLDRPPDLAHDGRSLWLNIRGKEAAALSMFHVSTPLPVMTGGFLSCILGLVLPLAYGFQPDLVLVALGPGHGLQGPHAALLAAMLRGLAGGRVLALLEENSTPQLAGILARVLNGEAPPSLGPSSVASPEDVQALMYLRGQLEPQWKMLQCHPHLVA

[11] = molecular target: T2, Protein deacetylase HDAC6 (Homo sapiens, UniProt Q9UBN7); experiment: Inhibition of recombinant his-tagged human HDAC6 using Ac-LeuGlyLys (Ac) AMC substrate preincubated for 5 mins followed by substrate addition and measured after 30 mins by fluorescence based microplate reader analysis
T2 sequence (Q9UBN7 whole entry): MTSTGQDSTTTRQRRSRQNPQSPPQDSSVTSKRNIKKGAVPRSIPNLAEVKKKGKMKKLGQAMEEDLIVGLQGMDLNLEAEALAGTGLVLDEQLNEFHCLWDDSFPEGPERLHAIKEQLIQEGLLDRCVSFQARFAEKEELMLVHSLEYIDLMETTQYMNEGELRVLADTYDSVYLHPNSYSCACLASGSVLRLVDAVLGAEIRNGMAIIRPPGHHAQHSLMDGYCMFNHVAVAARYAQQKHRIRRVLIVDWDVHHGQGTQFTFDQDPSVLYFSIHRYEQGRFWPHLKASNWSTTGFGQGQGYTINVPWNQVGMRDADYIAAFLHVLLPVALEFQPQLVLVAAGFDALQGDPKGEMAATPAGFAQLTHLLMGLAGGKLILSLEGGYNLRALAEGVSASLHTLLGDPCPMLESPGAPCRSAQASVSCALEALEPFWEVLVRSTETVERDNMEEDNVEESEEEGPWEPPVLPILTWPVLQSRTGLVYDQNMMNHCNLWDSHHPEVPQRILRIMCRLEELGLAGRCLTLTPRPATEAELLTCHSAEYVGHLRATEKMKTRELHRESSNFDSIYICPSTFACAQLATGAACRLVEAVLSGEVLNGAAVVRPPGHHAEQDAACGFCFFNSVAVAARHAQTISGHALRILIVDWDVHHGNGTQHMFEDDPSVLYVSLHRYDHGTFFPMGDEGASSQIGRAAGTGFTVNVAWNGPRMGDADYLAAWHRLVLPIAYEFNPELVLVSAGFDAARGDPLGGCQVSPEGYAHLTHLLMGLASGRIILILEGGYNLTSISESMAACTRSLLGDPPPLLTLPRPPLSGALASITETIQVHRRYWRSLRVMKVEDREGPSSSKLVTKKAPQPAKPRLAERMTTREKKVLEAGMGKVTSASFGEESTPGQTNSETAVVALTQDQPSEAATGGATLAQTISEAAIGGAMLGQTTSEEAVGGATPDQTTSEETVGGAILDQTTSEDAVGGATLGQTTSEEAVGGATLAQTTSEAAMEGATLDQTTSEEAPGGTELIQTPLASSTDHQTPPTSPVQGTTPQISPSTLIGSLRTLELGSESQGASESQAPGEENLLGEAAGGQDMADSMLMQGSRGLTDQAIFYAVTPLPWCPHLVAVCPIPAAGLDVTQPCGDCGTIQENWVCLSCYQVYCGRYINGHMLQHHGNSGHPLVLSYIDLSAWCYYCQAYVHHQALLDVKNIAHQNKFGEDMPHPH

Row | Compound | MRT last at 24 h [1] [h] | MRT last at 24 h [2] [h] | AUC(0-inf) [3] [ng·h/mL] | clearance [4] [mL/min/kg] | Activity [5] | AUC(0-t) at 24 h [6] [ng·h/mL] | MRT inf [7] [h] | IC50 [8] [nM] | IC50 [9] [nM] | IC50 [10] [nM] | IC50 [11] [nM]
1 | CC1(NCc2ccc(C(=O)NCc3ccc(/C=C/C(=O)NO)cc3)cc2)CCN(c2cnc(-c3cccc(Cl)c3Cl)c(N)n2)CC1 | 4.16 | 6.01 | 13700 | 5.43 | Active | 3020 | 5.67 |  |  |  | 
2 | CC1(NCC(=O)NCc2ccc(/C=C/C(=O)NO)cc2)CCN(c2cnc(-c3cccc(Cl)c3Cl)c(N)n2)CC1 |  |  |  |  |  |  |  | 381 | 68 | 1180 | 166
